One assay addresses T1, PDE5A1 (Homo sapiens, UniProt O76074).
T1 construct: from tissue; host or cells: human platelets from fresh donor blood (10,000 x g supernatant of sonicated lysate)
Kind of assay: Inhibition of type 5 phosphodiesterase (PDE5) activity, modified SPA test with human platelet lysate. It counts as biochemical. Conditions: 0.5 μM cGMP, read-out: PDE5A1 inhibitory values [measured as −log IC50 (mol/l)] (converted). Put shortly:
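Enzyme source is lysate from human platelets (10,000 g supernatant). Compound preincubated 5 min at 37° C in Tris pH 7.4 containing 1 μM motapizone and 10 nM of a PDE2 inhibitor. Reaction started with 0.5 μM cGMP ([3H] tracer) and run 15 min; SPA read-out, IC50 by non-linear regression.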

The next assay addresses T2, PDE4B1 (Homo sapiens, UniProt Q07343).
T2 construct: made in house; host or cells: SF21 insect cells (baculovirus; pCRBac vector), 1000 x g supernatant of homogenate
Kind of assay: Inhibition of type 4 phosphodiesterase (PDE4) activity, modified SPA test with recombinant PDE4B1 expressed in SF21 insect cells. It is filed as biochemical. Conditions: recombinant PDE4B1, 0.5 μM cAMP, read-out: PDE4B1 inhibitory values [measured as −log IC50 (mol/l)] (converted). Put shortly:
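Modified [3H]cAMP SPA using 1000×g supernatant of SF21 cells expressing recombinant human PDE4B1, in 20 mM Tris pH 7.4, 0.1 mg/ml BSA, 5 mM Mg2+, 0.5 μM cAMP. After 5 min preincubation at 37 °C, 15 min reaction, stopped with SPA beads plus IBMX; IC50 by non-linear regression.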

The values that follow come from patent US9376442B2, “Methylpyrrolopyrimidinecarboxamides” (Takeda GmbH, priority 2009, dated 2016).

SMILES strings stand for the structures. A value given as a limit tells only on which side of the number the result lay.

T2 sequence (Q07343 whole entry): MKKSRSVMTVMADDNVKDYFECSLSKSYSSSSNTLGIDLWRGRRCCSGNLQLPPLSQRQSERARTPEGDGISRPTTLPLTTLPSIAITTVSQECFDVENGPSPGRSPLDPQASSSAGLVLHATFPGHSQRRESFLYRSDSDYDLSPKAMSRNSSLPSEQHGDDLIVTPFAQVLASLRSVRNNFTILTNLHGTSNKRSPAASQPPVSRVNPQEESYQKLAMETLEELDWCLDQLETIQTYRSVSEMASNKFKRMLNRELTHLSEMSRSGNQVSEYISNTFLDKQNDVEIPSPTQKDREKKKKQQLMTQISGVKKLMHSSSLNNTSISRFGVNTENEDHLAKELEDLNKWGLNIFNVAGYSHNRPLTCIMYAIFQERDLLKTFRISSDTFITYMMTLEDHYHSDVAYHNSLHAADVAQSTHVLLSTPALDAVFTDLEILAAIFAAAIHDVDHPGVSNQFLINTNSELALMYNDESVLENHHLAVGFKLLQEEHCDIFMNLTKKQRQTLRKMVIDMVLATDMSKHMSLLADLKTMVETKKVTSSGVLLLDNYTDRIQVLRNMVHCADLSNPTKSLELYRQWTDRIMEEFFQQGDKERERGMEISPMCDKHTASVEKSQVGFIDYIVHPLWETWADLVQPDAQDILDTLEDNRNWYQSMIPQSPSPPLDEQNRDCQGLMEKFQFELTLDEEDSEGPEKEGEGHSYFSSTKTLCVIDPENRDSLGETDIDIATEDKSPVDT

Consider `CC(=O)N[C@H]1CC[C@H](NC(=O)c2c(C)[nH]c3c(-c4cc(C(F)F)ccc4OCC4CC4)ncnc23)C[C@H]1F` (relative stereo) [Example P199, N-[(1S*,3R*,4S*)-4-(Acetylamino)-3-fluorocyclohexyl]-4-[2-(cyclopropylmethoxy)-5-(difluoromethyl)phenyl]-6-methyl-5H-pyrrolo[3,2-d]pyrimidine-7-carboxamide], for which the figures for the IC50 at PDE5A1 and at PDE4B1 were under 1 nM and under 100 nM, respectively.
On to `COCC(=O)N1C[C@@H](NC(=O)c2c(C)[nH]c3c(-c4cc(C(F)F)ccc4OCC4CC4)ncnc23)C[C@@H]1C` [Example P26, 4-[2-(Cyclopropylmethoxy)-5-(difluoromethyl)phenyl]-N-[(3S,5S)-1-(methoxyacetyl)-5-methylpyrrolidin-3-yl]-6-methyl-5H-pyrrolo[3,2-d]pyrimidine-7-carboxamide], for which the IC50 on PDE5A1 was 1 to 10 nM; at PDE4B1, under 100 nM.
In the same order, the values of `Cc1[nH]c2c(-c3cc(C(F)(F)F)ccc3OCC3CC3)ncnc2c1C(=O)N[C@H]1CC[C@@H](NC(=O)[C@H](C)O)CC1` [Example F62, 4-[2-(Cyclopropylmethoxy)-5-(trifluoromethyl)phenyl]-N-(cis-4-{[(2S)-2-hydroxypropanoyl]amino}cyclohexyl)-6-methyl-5H-pyrrolo[3,2-d]pyrimidine-7-carboxamide] are under 1 nM and under 100 nM.
In the same order, the values of `CC(=O)N[C@H]1CC[C@@H](NC(=O)c2c(C)[nH]c3c(-c4cc(C)ccc4OCC4CC4)ncnc23)CC1` [Example E87, N-[cis-4-(acetylamino)cyclohexyl]-4-[2-(cyclopropylmethoxy)-5-methylphenyl]-6-methyl-5H-pyrrolo[3,2-d]pyrimidine-7-carboxamide] are under 1 nM and under 100 nM.
Consider `Cc1[nH]c2c(-c3cc(C(F)(F)F)ccc3OCC3CC3)ncnc2c1C(=O)NC1CCN(C(=O)CO)CC1` [Example F57, 4-[2-(Cyclopropylmethoxy)-5-(trifluoromethyl)phenyl]-N-[1-(hydroxyacetyl)piperidin-4-yl]-6-methyl-5H-pyrrolo[3,2-d]pyrimidine-7-carboxamide], for which the IC50 was under 1 nM at PDE5A1 and under 100 nM at PDE4B1.
As for `CCC(=O)N[C@H]1CC[C@H](NC(=O)c2c(C)[nH]c3c(-c4cc(C)ccc4OCC4CC4)ncnc23)CC1` [Example E85, 4-[2-(Cyclopropylmethoxy)-5-methylphenyl]-6-methyl-N-[trans-4-(propanoylamino)cyclohexyl]-5H-pyrrolo[3,2-d]pyrimidine-7-carboxamide], the IC50 at PDE5A1 was under 1 nM; at PDE4B1 it was under 100 nM.
On to `CC(=O)N[C@H]1CC[C@H](NC(=O)c2c(C)[nH]c3c(-c4cc(C(F)F)ccc4OCC4CC4)ncnc23)C[C@@H]1F` (relative stereo) [Example P209, N-[(1S*,3S*,4S*)-4-(Acetylamino)-3-fluorocyclohexyl]-4-[2-(cyclopropylmethoxy)-5-(difluoromethyl)phenyl]-6-methyl-5H-pyrrolo[3,2-d]pyrimidine-7-carboxamide], for which the IC50 at PDE5A1 was under 1 nM; on PDE4B1, under 100 nM.
For `CCOC(=O)N1CCC(NC(=O)c2c(C)[nH]c3c(-c4cc(F)ccc4OCC4CC4)ncnc23)CC1` [Example E40, Ethyl 4-[({4-[2-(cyclopropylmethoxy)-5-fluorophenyl]-6-methyl-5H-pyrrolo[3,2-d]pyrimidin-7-yl}carbonyl)amino]piperidine-1-carboxylate], the IC50 at PDE5A1 is under 1 nM; at PDE4B1 it was 100 to 1000 nM.
For `CCC(=O)N[C@@H]1CC[C@@H](NC(=O)c2c(C)[nH]c3c(-c4cc(C(F)F)ccc4OCC4CC4)ncnc23)[C@H](F)C1` (relative stereo) [Example P160, 4-[2-(Cyclopropylmethoxy)-5-(difluoromethyl)phenyl]-N-[(1R*,2R*,4R*)-2-fluoro-4-(propanoylamino)cyclohexyl]-6-methyl-5H-pyrrolo[3,2-d]pyrimidine-7-carboxamide], the IC50 on PDE5A1 was under 1 nM; at PDE4B1, under 100 nM.
`CCc1ccc(OCC2CC2)c(-c2ncnc3c(C(=O)N[C@H]4CC[C@H](NC(=O)CO)CC4)c(C)[nH]c23)c1` [Example F93, 4-[2-(Cyclopropylmethoxy)-5-ethylphenyl]-N-{trans-4-[(hydroxyacetyl)amino]cyclohexyl}-6-methyl-5H-pyrrolo[3,2-d]pyrimidine-7-carboxamide]: the IC50 was under 1 nM on PDE5A1 and under 100 nM on PDE4B1.
The like results for `CCC(=O)N1CCC(NC(=O)c2c(C)[nH]c3c(-c4cc(C(F)(F)F)ccc4OCC4CC4)ncnc23)CC1` [Example E91, 4-[2-(Cyclopropylmethoxy)-5-(trifluoromethyl)phenyl]-6-methyl-N-(1-propanoylpiperidin-4-yl)-5H-pyrrolo[3,2-d]pyrimidine-7-carboxamide] were, in that order, under 1 nM and under 100 nM.
In the same order, the values of `Cc1ccc(OCC2CC2)c(-c2ncnc3c(C(=O)NC4CCN(C(=O)CO)CC4)c(C)[nH]c23)c1` [Example F51] are under 1 nM and under 100 nM.
Take `COCC(=O)N[C@H]1CC[C@H](NC(=O)c2c(C)[nH]c3c(-c4cc(C(F)F)ccc4OCC4CC4)ncnc23)C[C@@H]1F` (relative stereo) [Example P211, 4-[2-(Cyclopropylmethoxy)-5-(difluoromethyl)phenyl]-N-{(1S*,3S*,4S*)-3-fluoro-4-[(methoxyacetyl)amino]cyclohexyl}-6-methyl-5H-pyrrolo[3,2-d]pyrimidine-7-carboxamide]: the figures for the IC50 on PDE5A1 and at PDE4B1 were under 1 nM and under 100 nM, respectively.
For `CCc1ccc(OCC2CC2)c(-c2ncnc3c(C(=O)N[C@H]4CC[C@H](NC(=O)[C@H](C)O)CC4)c(C)[nH]c23)c1` [Example F94, 4-[2-(Cyclopropylmethoxy)-5-ethylphenyl]-N-(trans-4-{[(2S)-2-hydroxypropanoyl]amino}cyclohexyl)-6-methyl-5H-pyrrolo[3,2-d]pyrimidine-7-carboxamide], the IC50 was under 1 nM on PDE5A1 and under 100 nM on PDE4B1.
In the same order, the values of `Cc1[nH]c2c(-c3cc(F)ccc3OCC3CC3)ncnc2c1C(=O)N[C@H]1CC[C@@H](NC(=O)[C@H](C)O)CC1` [Example F27, 4-[2-(Cyclopropylmethoxy)-5-fluorophenyl]-N-(cis-4-{[(2S)-2-hydroxypropanoyl]amino}cyclohexyl)-6-methyl-5H-pyrrolo[3,2-d]pyrimidine-7-carboxamide] are 1 to 10 nM and 100 to 1000 nM.
Take `COc1ccc(OCC2CC2)c(-c2ncnc3c(C(=O)N[C@H]4CC[C@@H](NC(=O)[C@H](C)O)CC4)c(C)[nH]c23)c1` [Example F46, 4-[2-(cyclopropylmethoxy)-5-methoxyphenyl]-N-(cis-4-{[(2S)-2-hydroxypropanoyl]amino}cyclohexyl)-6-methyl-5H-pyrrolo[3,2-d]pyrimidine-7-carboxamide]: the values for the IC50 on PDE5A1 and on PDE4B1 were under 1 nM and 100 to 1000 nM, respectively.
Take `COCC(=O)N[C@H]1CC[C@H](NC(=O)c2c(C)[nH]c3c(-c4cc(C(F)F)ccc4OCC4CC4)ncnc23)CC1` [Example P8, 4-[2-(Cyclopropylmethoxy)-5-(difluoromethyl)phenyl]-N-{trans-4-[(methoxyacetyl)amino]cyclohexyl}-6-methyl-5H-pyrrolo[3,2-d]pyrimidine-7-carboxamide]: the values for the IC50 on PDE5A1 and at PDE4B1 were under 1 nM and under 100 nM, respectively.
